Results taken from ChEMBL document CHEMBL3885861, “Open TG-GATES”.

Species: Rattus norvegicus
Experiment: Open TG-GATES - Regimen: Daily Repeat
Assay type: toxicity, organism-based, Sprague-Dawley
Design: regimen Daily Repeat, gender Male, age 6 weeks
Settings: in vivo, po, route gavage; for APTT / Bas / Eos / Fbg / Hb / Ht / Lym / MCH / MCHC / MCV / Mono / Neu / PT / Plat / RBC / Ret / WBC: tissue Blood; for KIDNEY_L / KIDNEY_R / KIDNEY_TOTAL: tissue Kidney; for LIVER: tissue Liver; for A/G / ALP / ALT / AST / BUN / CRE / Ca / Cl / DBIL / GLC / IP / K / LDH / Na / PL / RALB / TBIL / TC / TG / TP / gamma-GTP: tissue Plasma
[1] = 0 mg/kg, 72 h, dose level Control, time 3 day
[2] = 0 mg/kg, […], dose level Control, time 7 day
[3] = 0 mg/kg, […], dose level Control, time 14 day
[4] = 0 mg/kg, […], dose level Control, time 28 day
[5] = 100 mg/kg, 72 h, dose level Low, time 3 day
[6] = 100 mg/kg, […], dose level Low, time 7 day
[7] = 100 mg/kg, […], dose level Low, time 14 day
[8] = 100 mg/kg, […], dose level Low, time 28 day

O=C(N[C@H](CO)[C@H](O)c1ccc([N+](=O)[O-])cc1)C(Cl)Cl [CHLORAMPHENICOL]
TERMINAL_BW [1]: 250.4 g
APTT [1]: 17.1 s
Bas [1]: 0%
Eos [1]: 1.2%
Fbg [1]: 270.4 mg/dL
Hb [1]: 13.1 g/dL
Ht [1]: 40.4%
Lym [1]: 71.6%
MCH [1]: 21.5 pg
MCHC [1]: 32.4%
MCV [1]: 66.2 fL
Mono [1]: 3%
Neu [1]: 23.8%
PT [1]: 14.4 s
Plat [1]: 109.8 x10_4/uL
RBC [1]: 611.2 x10_4/ul
Ret [1]: 7%
WBC [1]: 78.3 x10_2/uL
KIDNEY_L [1]: 1.1 g
KIDNEY_R [1]: 1.1 g
KIDNEY_TOTAL [1]: 2.2 g
LIVER [1]: 12.4 g
A/G [1]: 0.9
ALP [1]: 1702 IU/L
ALT [1]: 44 IU/L
AST [1]: 66.4 IU/L
BUN [1]: 15 mg/dL
CRE [1]: 0.2 mg/dL
Ca [1]: 11.3 mg/dL
Cl [1]: 105 meq/L
DBIL [1]: 0.022 mg/dL
GLC [1]: 186.8 mg/dL
IP [1]: 7.1 mg/dL
K [1]: 4.1 meq/L
LDH [1]: 80.8 IU/L
Na [1]: 140.4 meq/L
PL [1]: 154 mg/dL
RALB [1]: 2.7 g/dL
TBIL [1]: 0.048 mg/dL
TC [1]: 78.4 mg/dL
TG [1]: 127.6 mg/dL
TP [1]: 5.7 g/dL
gamma-GTP [1]: 1.2 IU/L
TERMINAL_BW [2]: 289.7 g
TERMINAL_BW [3]: 334.8 g
TERMINAL_BW [4]: 425.6 g
APTT [2]: 17.6 s
Bas [2]: 0%
Eos [2]: 0.8%
Fbg [2]: 274.8 mg/dL
Hb [2]: 13.7 g/dL
Ht [2]: 42%
Lym [2]: 77.8%
MCH [2]: 21.4 pg
MCHC [2]: 32.6%
MCV [2]: 65.7 fL
Mono [2]: 2.6%
Neu [2]: 18.2%
PT [2]: 14.1 s
Plat [2]: 131.7 x10_4/uL
RBC [2]: 640.6 x10_4/ul
Ret [2]: 5.6%
WBC [2]: 92.1 x10_2/uL
APTT [3]: 16.9 s
Bas [3]: 0%
Eos [3]: 1%
Fbg [3]: 272 mg/dL
Hb [3]: 14.6 g/dL
Ht [3]: 44.5%
Lym [3]: 78.4%
MCH [3]: 20.3 pg
MCHC [3]: 32.6%
MCV [3]: 62.3 fL
Mono [3]: 2.2%
Neu [3]: 18%
PT [3]: 14.8 s
Plat [3]: 122.4 x10_4/uL
RBC [3]: 715.4 x10_4/ul
Ret [3]: 3.8%
WBC [3]: 90.5 x10_2/uL
APTT [4]: 18.3 s
Bas [4]: 0%
Eos [4]: 1.6%
Fbg [4]: 259 mg/dL
Hb [4]: 15.5 g/dL
Ht [4]: 45.1%
Lym [4]: 77.4%
MCH [4]: 20 pg
MCHC [4]: 34.3%
MCV [4]: 58.3 fL
Mono [4]: 1.8%
Neu [4]: 18.4%
PT [4]: 14.8 s
Plat [4]: 93.9 x10_4/uL
RBC [4]: 773 x10_4/ul
Ret [4]: 2.2%
WBC [4]: 79.4 x10_2/uL
KIDNEY_L [2]: 1.2 g
KIDNEY_R [2]: 1.2 g
KIDNEY_TOTAL [2]: 2.4 g
KIDNEY_L [3]: 1.3 g
KIDNEY_R [3]: 1.3 g
KIDNEY_TOTAL [3]: 2.6 g
KIDNEY_L [4]: 1.4 g
KIDNEY_R [4]: 1.4 g
KIDNEY_TOTAL [4]: 2.8 g
LIVER [2]: 13.8 g
LIVER [3]: 13.9 g
LIVER [4]: 17 g
A/G [2]: 0.9
ALP [2]: 1839.2 IU/L
ALT [2]: 44.4 IU/L
AST [2]: 69.4 IU/L
BUN [2]: 15.4 mg/dL
CRE [2]: 0.2 mg/dL
Ca [2]: 11.3 mg/dL
Cl [2]: 106.4 meq/L
DBIL [2]: 0.024 mg/dL
GLC [2]: 188.8 mg/dL
IP [2]: 7.5 mg/dL
K [2]: 3.9 meq/L
LDH [2]: 64.2 IU/L
Na [2]: 143.2 meq/L
PL [2]: 162.2 mg/dL
RALB [2]: 2.7 g/dL
TBIL [2]: 0.052 mg/dL
TC [2]: 79 mg/dL
TG [2]: 140.4 mg/dL
TP [2]: 5.9 g/dL
gamma-GTP [2]: 1.2 IU/L
A/G [3]: 0.8
ALP [3]: 1466.2 IU/L
ALT [3]: 37.2 IU/L
AST [3]: 63.6 IU/L
BUN [3]: 17.2 mg/dL
CRE [3]: 0.2 mg/dL
Ca [3]: 11.1 mg/dL
Cl [3]: 107.2 meq/L
DBIL [3]: 0.024 mg/dL
GLC [3]: 187.6 mg/dL
IP [3]: 6.5 mg/dL
K [3]: 4.5 meq/L
LDH [3]: 59 IU/L
Na [3]: 143 meq/L
PL [3]: 151.6 mg/dL
RALB [3]: 2.7 g/dL
TBIL [3]: 0.05 mg/dL
TC [3]: 63.6 mg/dL
TG [3]: 189.6 mg/dL
TP [3]: 6 g/dL
gamma-GTP [3]: 1 IU/L
A/G [4]: 0.8
ALP [4]: 1089.6 IU/L
ALT [4]: 36.4 IU/L
AST [4]: 60 IU/L
BUN [4]: 17 mg/dL
CRE [4]: 0.2 mg/dL
Ca [4]: 11 mg/dL
Cl [4]: 104.4 meq/L
DBIL [4]: 0.018 mg/dL
GLC [4]: 193.4 mg/dL
IP [4]: 6.2 mg/dL
K [4]: 3.7 meq/L
LDH [4]: 47.2 IU/L
Na [4]: 143.8 meq/L
PL [4]: 141.4 mg/dL
RALB [4]: 2.7 g/dL
TBIL [4]: 0.054 mg/dL
TC [4]: 66 mg/dL
TG [4]: 136.6 mg/dL
TP [4]: 6.3 g/dL
gamma-GTP [4]: 1 IU/L
TERMINAL_BW [5]: 251 g
APTT [5]: 16.1 s
Bas [5]: 0%
Eos [5]: 1%
Fbg [5]: 273.2 mg/dL
Hb [5]: 13.3 g/dL
Ht [5]: 40.4%
Lym [5]: 79.4%
MCH [5]: 21.8 pg
MCHC [5]: 32.8%
MCV [5]: 66.6 fL
Mono [5]: 3.2%
Neu [5]: 16.2%
PT [5]: 14.7 s
Plat [5]: 116.8 x10_4/uL
RBC [5]: 607.2 x10_4/ul
Ret [5]: 5.4%
WBC [5]: 102.1 x10_2/uL
KIDNEY_L [5]: 1.1 g
KIDNEY_R [5]: 1 g
KIDNEY_TOTAL [5]: 2.1 g
LIVER [5]: 11.3 g
A/G [5]: 0.9
ALP [5]: 1563.4 IU/L
ALT [5]: 45 IU/L
AST [5]: 69.4 IU/L
BUN [5]: 15.6 mg/dL
CRE [5]: 0.2 mg/dL
Ca [5]: 11.1 mg/dL
Cl [5]: 104.6 meq/L
DBIL [5]: 0.02 mg/dL
GLC [5]: 178.4 mg/dL
IP [5]: 6.8 mg/dL
K [5]: 4.3 meq/L
LDH [5]: 95.6 IU/L
Na [5]: 141.2 meq/L
PL [5]: 146.8 mg/dL
RALB [5]: 2.5 g/dL
TBIL [5]: 0.054 mg/dL
TC [5]: 80 mg/dL
TG [5]: 97.6 mg/dL
TP [5]: 5.4 g/dL
gamma-GTP [5]: 0.8 IU/L
TERMINAL_BW [6]: 287.8 g
TERMINAL_BW [7]: 333.6 g
TERMINAL_BW [8]: 409.6 g
APTT [6]: 16.2 s
Bas [6]: 0%
Eos [6]: 0.8%
Fbg [6]: 308.8 mg/dL
Hb [6]: 14.2 g/dL
Ht [6]: 44.4%
Lym [6]: 78.2%
MCH [6]: 21.1 pg
MCHC [6]: 32.2%
MCV [6]: 65.7 fL
Mono [6]: 3%
Neu [6]: 17.4%
PT [6]: 14.4 s
Plat [6]: 131.5 x10_4/uL
RBC [6]: 675 x10_4/ul
Ret [6]: 6%
WBC [6]: 90.7 x10_2/uL
APTT [7]: 14.7 s
Bas [7]: 0%
Eos [7]: 1.4%
Fbg [7]: 297.8 mg/dL
Hb [7]: 14.1 g/dL
Ht [7]: 43.4%
Lym [7]: 78%
MCH [7]: 20.2 pg
MCHC [7]: 32.5%
MCV [7]: 62.1 fL
Mono [7]: 2.4%
Neu [7]: 18%
PT [7]: 14.5 s
Plat [7]: 121.6 x10_4/uL
RBC [7]: 698.2 x10_4/ul
Ret [7]: 3.8%
WBC [7]: 96.2 x10_2/uL
APTT [8]: 16.5 s
Bas [8]: 0%
Eos [8]: 1%
Fbg [8]: 278 mg/dL
Hb [8]: 14.9 g/dL
Ht [8]: 43.7%
Lym [8]: 81%
MCH [8]: 19.5 pg
MCHC [8]: 34.2%
MCV [8]: 57 fL
Mono [8]: 1.2%
Neu [8]: 15.8%
PT [8]: 14.8 s
Plat [8]: 106 x10_4/uL
RBC [8]: 767.4 x10_4/ul
Ret [8]: 2.3%
WBC [8]: 79.5 x10_2/uL
KIDNEY_L [6]: 1.2 g
KIDNEY_R [6]: 1.2 g
KIDNEY_TOTAL [6]: 2.4 g
KIDNEY_L [7]: 1.3 g
KIDNEY_R [7]: 1.3 g
KIDNEY_TOTAL [7]: 2.6 g
KIDNEY_L [8]: 1.6 g
KIDNEY_R [8]: 1.5 g
KIDNEY_TOTAL [8]: 3.1 g
LIVER [6]: 12.9 g
LIVER [7]: 14.9 g
LIVER [8]: 16.8 g
A/G [6]: 0.8
ALP [6]: 1500.2 IU/L
ALT [6]: 49 IU/L
AST [6]: 71.2 IU/L
BUN [6]: 13.6 mg/dL
CRE [6]: 0.2 mg/dL
Ca [6]: 11.7 mg/dL
Cl [6]: 106.2 meq/L
DBIL [6]: 0.026 mg/dL
GLC [6]: 189.6 mg/dL
IP [6]: 8.3 mg/dL
K [6]: 4.2 meq/L
LDH [6]: 65.8 IU/L
Na [6]: 144.2 meq/L
PL [6]: 156.2 mg/dL
RALB [6]: 2.7 g/dL
TBIL [6]: 0.062 mg/dL
TC [6]: 82.6 mg/dL
TG [6]: 72.4 mg/dL
TP [6]: 5.9 g/dL
gamma-GTP [6]: 1.2 IU/L
A/G [7]: 0.8
ALP [7]: 1535.2 IU/L
ALT [7]: 41.8 IU/L
AST [7]: 67.4 IU/L
BUN [7]: 16 mg/dL
CRE [7]: 0.2 mg/dL
Ca [7]: 11.2 mg/dL
Cl [7]: 105 meq/L
DBIL [7]: 0.022 mg/dL
GLC [7]: 191 mg/dL
IP [7]: 6.5 mg/dL
K [7]: 3.8 meq/L
LDH [7]: 54.8 IU/L
Na [7]: 142.8 meq/L
PL [7]: 157.4 mg/dL
RALB [7]: 2.6 g/dL
TBIL [7]: 0.05 mg/dL
TC [7]: 77.8 mg/dL
TG [7]: 133 mg/dL
TP [7]: 5.8 g/dL
gamma-GTP [7]: 1 IU/L
A/G [8]: 0.8
ALP [8]: 1164.4 IU/L
ALT [8]: 39.2 IU/L
AST [8]: 61.4 IU/L
BUN [8]: 16.4 mg/dL
CRE [8]: 0.2 mg/dL
Ca [8]: 10.9 mg/dL
Cl [8]: 104.4 meq/L
DBIL [8]: 0.02 mg/dL
GLC [8]: 171.2 mg/dL
IP [8]: 6.1 mg/dL
K [8]: 3.5 meq/L
LDH [8]: 44.6 IU/L
Na [8]: 144.2 meq/L
PL [8]: 152.2 mg/dL
RALB [8]: 2.7 g/dL
TBIL [8]: 0.058 mg/dL
TC [8]: 75.2 mg/dL
TG [8]: 97.6 mg/dL
TP [8]: 6.2 g/dL
gamma-GTP [8]: 1 IU/L
